Source: article PMC3914206

Tests used:
Assay type in all cases: binding
Conditions in all cases: Compound Concentration 10 µM
panel of 442 kinases [1] = target: T1, panel of 442 kinases (Homo sapiens, UniProt O14578)
T1 construct: purchased KINOMEscan
Text: (§1) We assessed the selectivity of members of this scaffold using the KINOMEscan methodology across a near comprehensive panel of 442 kinases [[18,27]].

panel of 442 kinases [2] = target: T2, panel of 442 kinases (Homo sapiens, UniProt O95747)
T2 construct: purchased KINOMEscan
Text: as §1

panel of 442 kinases [3] = target: T3, panel of 442 kinases (Homo sapiens, UniProt Q6XUX3)
T3 construct: purchased KINOMEscan
T3 sequence (Q6XUX3 1-929): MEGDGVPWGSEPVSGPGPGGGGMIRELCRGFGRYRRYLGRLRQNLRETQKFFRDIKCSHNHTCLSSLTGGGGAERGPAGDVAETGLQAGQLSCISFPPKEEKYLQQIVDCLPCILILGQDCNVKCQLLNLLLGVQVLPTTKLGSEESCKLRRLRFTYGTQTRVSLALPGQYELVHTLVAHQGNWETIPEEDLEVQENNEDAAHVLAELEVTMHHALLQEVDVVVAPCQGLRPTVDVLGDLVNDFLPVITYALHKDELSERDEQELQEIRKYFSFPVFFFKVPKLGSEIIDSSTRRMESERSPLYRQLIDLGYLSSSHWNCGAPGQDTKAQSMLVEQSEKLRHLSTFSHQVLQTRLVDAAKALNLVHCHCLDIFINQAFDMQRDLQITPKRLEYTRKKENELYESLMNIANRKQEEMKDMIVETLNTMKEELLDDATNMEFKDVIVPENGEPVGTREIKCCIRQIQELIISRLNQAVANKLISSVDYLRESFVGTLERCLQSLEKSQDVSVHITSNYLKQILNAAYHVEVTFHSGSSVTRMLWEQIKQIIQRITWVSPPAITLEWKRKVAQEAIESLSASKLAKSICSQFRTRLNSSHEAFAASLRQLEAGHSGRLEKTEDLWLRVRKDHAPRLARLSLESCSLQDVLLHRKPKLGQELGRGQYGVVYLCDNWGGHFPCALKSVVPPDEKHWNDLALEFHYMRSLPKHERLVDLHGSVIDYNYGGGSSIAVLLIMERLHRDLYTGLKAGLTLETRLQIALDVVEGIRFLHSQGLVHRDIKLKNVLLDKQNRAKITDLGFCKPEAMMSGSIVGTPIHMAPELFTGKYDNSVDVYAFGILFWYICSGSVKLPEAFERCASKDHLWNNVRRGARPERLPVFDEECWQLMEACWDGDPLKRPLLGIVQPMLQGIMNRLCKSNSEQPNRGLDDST
Text: as §1

T1 sequence (O14578 whole entry): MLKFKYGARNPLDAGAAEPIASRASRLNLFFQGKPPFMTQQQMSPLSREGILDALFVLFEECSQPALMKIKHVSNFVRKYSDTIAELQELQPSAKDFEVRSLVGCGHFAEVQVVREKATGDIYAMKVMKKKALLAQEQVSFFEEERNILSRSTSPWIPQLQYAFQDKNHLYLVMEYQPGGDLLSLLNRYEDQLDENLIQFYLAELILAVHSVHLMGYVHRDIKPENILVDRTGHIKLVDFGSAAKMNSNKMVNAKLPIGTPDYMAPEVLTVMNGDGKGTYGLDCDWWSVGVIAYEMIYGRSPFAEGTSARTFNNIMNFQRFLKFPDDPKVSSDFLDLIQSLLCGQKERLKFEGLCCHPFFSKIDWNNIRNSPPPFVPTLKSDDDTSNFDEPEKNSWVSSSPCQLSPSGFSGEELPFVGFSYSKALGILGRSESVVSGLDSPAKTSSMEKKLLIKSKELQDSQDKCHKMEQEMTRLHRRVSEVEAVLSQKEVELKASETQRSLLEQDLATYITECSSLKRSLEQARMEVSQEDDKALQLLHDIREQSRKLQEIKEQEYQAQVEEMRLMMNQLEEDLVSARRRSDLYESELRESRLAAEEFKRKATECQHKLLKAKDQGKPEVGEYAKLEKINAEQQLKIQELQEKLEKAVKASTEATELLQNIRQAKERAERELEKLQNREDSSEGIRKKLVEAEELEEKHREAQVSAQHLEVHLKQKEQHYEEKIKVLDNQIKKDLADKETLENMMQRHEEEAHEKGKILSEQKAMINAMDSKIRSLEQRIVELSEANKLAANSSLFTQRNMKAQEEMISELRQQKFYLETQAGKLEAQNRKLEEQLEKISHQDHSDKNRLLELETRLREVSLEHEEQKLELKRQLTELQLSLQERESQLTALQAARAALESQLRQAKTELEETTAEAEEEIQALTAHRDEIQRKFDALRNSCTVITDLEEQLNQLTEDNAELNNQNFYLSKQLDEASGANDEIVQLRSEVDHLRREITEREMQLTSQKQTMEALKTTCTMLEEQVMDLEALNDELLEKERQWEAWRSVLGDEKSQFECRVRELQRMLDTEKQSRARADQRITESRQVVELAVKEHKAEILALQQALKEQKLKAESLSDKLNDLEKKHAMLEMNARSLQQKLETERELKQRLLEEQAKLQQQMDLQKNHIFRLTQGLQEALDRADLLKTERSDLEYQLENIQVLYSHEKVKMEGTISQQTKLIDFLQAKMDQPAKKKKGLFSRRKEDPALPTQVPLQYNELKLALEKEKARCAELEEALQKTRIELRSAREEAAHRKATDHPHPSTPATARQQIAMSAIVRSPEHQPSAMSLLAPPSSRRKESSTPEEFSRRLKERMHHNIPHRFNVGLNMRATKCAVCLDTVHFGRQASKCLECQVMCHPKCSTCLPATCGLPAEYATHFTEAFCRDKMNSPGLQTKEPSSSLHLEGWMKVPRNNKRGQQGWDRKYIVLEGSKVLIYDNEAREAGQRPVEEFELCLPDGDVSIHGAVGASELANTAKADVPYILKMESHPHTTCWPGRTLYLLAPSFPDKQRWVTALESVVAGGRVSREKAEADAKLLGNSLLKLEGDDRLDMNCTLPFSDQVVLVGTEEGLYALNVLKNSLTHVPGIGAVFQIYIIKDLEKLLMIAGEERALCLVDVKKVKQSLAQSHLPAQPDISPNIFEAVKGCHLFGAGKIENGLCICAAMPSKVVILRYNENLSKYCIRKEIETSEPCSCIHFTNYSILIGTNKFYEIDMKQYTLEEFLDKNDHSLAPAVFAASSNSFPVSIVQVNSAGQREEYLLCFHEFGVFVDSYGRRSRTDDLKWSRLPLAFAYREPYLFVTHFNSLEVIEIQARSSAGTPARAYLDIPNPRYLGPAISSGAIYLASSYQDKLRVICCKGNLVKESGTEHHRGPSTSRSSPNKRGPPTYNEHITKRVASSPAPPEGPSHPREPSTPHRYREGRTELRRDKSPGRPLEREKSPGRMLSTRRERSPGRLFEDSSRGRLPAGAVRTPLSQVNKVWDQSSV
T2 sequence (O95747 whole entry): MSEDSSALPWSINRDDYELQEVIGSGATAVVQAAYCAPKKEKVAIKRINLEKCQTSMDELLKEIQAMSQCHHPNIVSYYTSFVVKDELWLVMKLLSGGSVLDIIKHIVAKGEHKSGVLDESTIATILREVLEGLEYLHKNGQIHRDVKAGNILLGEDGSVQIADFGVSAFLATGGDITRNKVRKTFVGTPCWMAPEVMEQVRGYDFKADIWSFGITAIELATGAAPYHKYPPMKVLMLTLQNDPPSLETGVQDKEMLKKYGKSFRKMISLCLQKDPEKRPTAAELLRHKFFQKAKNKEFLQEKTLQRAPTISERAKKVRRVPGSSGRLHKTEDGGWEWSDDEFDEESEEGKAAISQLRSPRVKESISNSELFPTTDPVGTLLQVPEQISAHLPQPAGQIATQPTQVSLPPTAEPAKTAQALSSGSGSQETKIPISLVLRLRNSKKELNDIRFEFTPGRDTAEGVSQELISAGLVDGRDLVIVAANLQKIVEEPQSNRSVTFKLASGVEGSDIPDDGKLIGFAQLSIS

## CCOc1cc(C(=O)N2CCC(N3CCN(C)CC3)CC2)ccc1Nc1ncc2c(n1)N(C1CCCC1)c1ccccc1C(=O)N2C [Compound 26]
Panel of 442 kinases [1]
  KINOMEscan: CIT: 98
Panel of 442 kinases [2]
  KINOMEscan: OSR1: 99
Panel of 442 kinases [3]
  KINOMEscan: RIPK5: 16

## COc1cc(C(=O)N2CCC(N3CCN(C)CC3)CC2)ccc1Nc1ncc2c(n1)N(C1CCCC1)c1ccccc1C(=O)N2C [Compound 25, 11-cyclopentyl-2-((2-methoxy-4-(4-(4-methylpiperazin-1-yl)piperidine-1-carbonyl)phenyl)amino)-5-methyl-5H-benzo[e]pyrimido[5,4-b][1,4]diazepin-6(11H)-one]
Panel of 442 kinases [1]
  KINOMEscan: CIT: 66
Panel of 442 kinases [2]
  KINOMEscan: OSR1: 100
Panel of 442 kinases [3]
  KINOMEscan: RIPK5: 4.9

## COc1cc(C(=O)N2CCC(N3CCN(C)CC3)CC2)ccc1Nc1ncc2c(n1)N1CCc3cccc(c31)C(=O)N2C [Compound 24]
Panel of 442 kinases [1]
  KINOMEscan: CIT: 1.5
Panel of 442 kinases [2]
  KINOMEscan: OSR1: 100
Panel of 442 kinases [3]
  KINOMEscan: RIPK5: 24

## COc1cc(C(=O)N2CCC(N3CCN(C)CC3)CC2)ccc1Nc1ncc2c(n1)N(C)c1ccccc1C(=O)N2C [15 (LRRK2-IN-1)]
Panel of 442 kinases [1]
  KINOMEscan: CIT: 99
Panel of 442 kinases [2]
  KINOMEscan: OSR1: 88
Panel of 442 kinases [3]
  KINOMEscan: RIPK5: 16
